Measured values as given in the NIST ThermoML archive (doi:10.1016/j.jct.2017.08.004).
± gives the expanded uncertainty stated by the source.

Test: molar heat capacity at constant pressure
Conditions: 101.33 kPa, Small sample (50 mg) DSC

O[C@H]1[C@H](O)[C@@H](O)[C@H](O)[C@@H](O)[C@H]1O [cis-1,2,3,5-trans-4,6-cyclohexanehexol]
Conditions | molar heat capacity at constant pressure [J/K/mol]
315.15 K, Crystal | 232.92 ± 33
316.15 K, Crystal | 233.85 ± 33
317.15 K, Crystal | 235 ± 33
318.15 K, Crystal | 235.92 ± 33
319.15 K, Crystal | 236.78 ± 33
320 K, Crystal | 237.36 ± 33
320.15 K, Crystal | 237.59 ± 33
321.15 K, Crystal | 238.68 ± 34
322.15 K, Crystal | 239.43 ± 34
323.15 K, Crystal | 240.32 ± 34
324.15 K, Crystal | 241.22 ± 34
325 K, Crystal | 241.8 ± 34
325.15 K, Crystal | 242.06 ± 34
326.15 K, Crystal | 242.94 ± 34
327.15 K, Crystal | 243.8 ± 34
328.15 K, Crystal | 244.59 ± 34
329.15 K, Crystal | 245.47 ± 35
330 K, Crystal | 246.17 ± 35
330.15 K, Crystal | 246.24 ± 35
331.15 K, Crystal | 247.08 ± 35
332.15 K, Crystal | 247.89 ± 35
333.15 K, Crystal | 248.82 ± 35
334.15 K, Crystal | 249.61 ± 35
335 K, Crystal | 250.49 ± 35
335.15 K, Crystal | 250.35 ± 35
336.15 K, Crystal | 251.33 ± 35
337.15 K, Crystal | 251.96 ± 35
338.15 K, Crystal | 252.7 ± 36
339.15 K, Crystal | 253.75 ± 36
340 K, Crystal | 254.75 ± 36
340.15 K, Crystal | 254.49 ± 36
341.15 K, Crystal | 255.37 ± 36
342.15 K, Crystal | 256.24 ± 36
343.15 K, Crystal | 257.08 ± 36
344.15 K, Crystal | 258 ± 36
345 K, Crystal | 258.97 ± 36
345.15 K, Crystal | 258.77 ± 36
346.15 K, Crystal | 259.66 ± 37
347.15 K, Crystal | 260.52 ± 37
348.15 K, Crystal | 261.32 ± 37
349.15 K, Crystal | 262.12 ± 37
350 K, Crystal | 263.15 ± 37
350.15 K, Crystal | 262.98 ± 37
351.15 K, Crystal | 263.82 ± 37
352.15 K, Crystal | 264.56 ± 37
353.15 K, Crystal | 265.46 ± 37
354.15 K, Crystal | 266.43 ± 37
355 K, Crystal | 267.28 ± 38
355.15 K, Crystal | 268.62 ± 38
356.15 K, Crystal | 269.08 ± 38
357.15 K, Crystal | 269.64 ± 38
358.15 K, Crystal | 270.31 ± 38
359.15 K, Crystal | 271.05 ± 38
360 K, Crystal | 271.38 ± 38
360.15 K, Crystal | 271.91 ± 38
361.15 K, Crystal | 272.57 ± 38
362.15 K, Crystal | 273.45 ± 38
363.15 K, Crystal | 274.41 ± 39
364.15 K, Crystal | 275.15 ± 39
365 K, Crystal | 275.43 ± 39
365.15 K, Crystal | 275.9 ± 39
366.15 K, Crystal | 276.72 ± 39
367.15 K, Crystal | 277.6 ± 39
368.15 K, Crystal | 278.26 ± 39
369.15 K, Crystal | 279.12 ± 39
370 K, Crystal | 279.44 ± 39
370.15 K, Crystal | 280 ± 39
371.15 K, Crystal | 280.66 ± 39
372.15 K, Crystal | 281.41 ± 40
373.15 K, Crystal | 282.03 ± 40
374.15 K, Crystal | 282.8 ± 40
375 K, Crystal | 283.41 ± 40
375.15 K, Crystal | 283.66 ± 40
376.15 K, Crystal | 284.41 ± 40
377.15 K, Crystal | 285.16 ± 40
378.15 K, Crystal | 286.02 ± 40
379.15 K, Crystal | 286.77 ± 40
380 K, Crystal | 287.33 ± 40
380.15 K, Crystal | 287.5 ± 40
381.15 K, Crystal | 288.2 ± 41
382.15 K, Crystal | 289.07 ± 41
383.15 K, Crystal | 289.93 ± 41
384.15 K, Crystal | 290.58 ± 41
385 K, Crystal | 291.21 ± 41
385.15 K, Crystal | 291.5 ± 41
386.15 K, Crystal | 292.25 ± 41
387.15 K, Crystal | 292.92 ± 41
388.15 K, Crystal | 293.5 ± 41
389.15 K, Crystal | 294.35 ± 41
390 K, Crystal | 295.04 ± 42
390.15 K, Crystal | 295.24 ± 42
391.15 K, Crystal | 295.7 ± 42
392.15 K, Crystal | 296.49 ± 42
393.15 K, Crystal | 297.22 ± 42
394.15 K, Crystal | 297.96 ± 42
395 K, Crystal | 298.83 ± 42
395.15 K, Crystal | 298.67 ± 42
396.15 K, Crystal | 299.31 ± 42
397.15 K, Crystal | 300.06 ± 42
398.15 K, Crystal | 300.77 ± 42
399.15 K, Crystal | 301.51 ± 42
400 K, Crystal | 302.58 ± 43
400.15 K, Crystal | 302.31 ± 43
401.15 K, Crystal | 303.15 ± 43
402.15 K, Crystal | 303.73 ± 43
403.15 K, Crystal | 304.44 ± 43
404.15 K, Crystal | 305.17 ± 43
405 K, Crystal | 306.28 ± 43
405.15 K, Crystal | 306.03 ± 43
406.15 K, Crystal | 306.79 ± 43
407.15 K, Crystal | 307.48 ± 43
408.15 K, Crystal | 308.4 ± 43
409.15 K, Crystal | 309.1 ± 43
410 K, Crystal | 309.94 ± 44
410.15 K, Crystal | 309.8 ± 44
411.15 K, Crystal | 310.58 ± 44
412.15 K, Crystal | 311.34 ± 44
413.15 K, Crystal | 311.98 ± 44
414.15 K, Crystal | 312.89 ± 44
415 K, Crystal | 313.58 ± 44
415.15 K, Crystal | 313.72 ± 44
416.15 K, Crystal | 314.29 ± 44
417.15 K, Crystal | 315.14 ± 44
418.15 K, Crystal | 315.93 ± 44
419.15 K, Crystal | 316.51 ± 45
420 K, Crystal | 317.18 ± 45
420.15 K, Crystal | 317.13 ± 45
421.15 K, Crystal | 317.97 ± 45
422.15 K, Crystal | 318.68 ± 45
423.15 K, Crystal | 319.32 ± 45
424.15 K, Crystal | 320.07 ± 45
425 K, Crystal | 320.78 ± 45
425.15 K, Crystal | 320.77 ± 45
426.15 K, Crystal | 321.54 ± 45
427.15 K, Crystal | 322.27 ± 45
428.15 K, Crystal | 322.94 ± 45
429.15 K, Crystal | 323.6 ± 46
430 K, Crystal | 324.37 ± 46
430.15 K, Crystal | 324.79 ± 46
431.15 K, Crystal | 325.38 ± 46
432.15 K, Crystal | 325.96 ± 46
433.15 K, Crystal | 326.58 ± 46
434.15 K, Crystal | 327.17 ± 46
435 K, Crystal | 327.98 ± 46
435.15 K, Crystal | 328.13 ± 46
436.15 K, Crystal | 328.94 ± 46
437.15 K, Crystal | 329.55 ± 46
438.15 K, Crystal | 330.45 ± 46
439.15 K, Crystal | 331.25 ± 47
440 K, Crystal | 331.62 ± 47
440.15 K, Crystal | 332.08 ± 47
441.15 K, Crystal | 332.75 ± 47
442.15 K, Crystal | 333.52 ± 47
443.15 K, Crystal | 334.28 ± 47
444.15 K, Crystal | 334.91 ± 47
445 K, Crystal | 335.31 ± 47
445.15 K, Crystal | 335.69 ± 47
446.15 K, Crystal | 336.45 ± 47
447.15 K, Crystal | 337.11 ± 47
448.15 K, Crystal | 337.97 ± 48
449.15 K, Crystal | 338.86 ± 48
450 K, Crystal | 339.09 ± 48
450.15 K, Crystal | 339.61 ± 48
451.15 K, Crystal | 340.28 ± 48
452.15 K, Crystal | 340.91 ± 48
453.15 K, Crystal | 341.76 ± 48
454.15 K, Crystal | 342.6 ± 48
455 K, Crystal | 342.97 ± 48
455.15 K, Crystal | 343.62 ± 48
456.15 K, Crystal | 344.29 ± 48
457.15 K, Crystal | 345.24 ± 49
458.15 K, Crystal | 346.14 ± 49
459.15 K, Crystal | 346.94 ± 49
460 K, Crystal | 346.99 ± 49
460.15 K, Crystal | 347.73 ± 49
461.15 K, Crystal | 348.37 ± 49
462.15 K, Crystal | 349.07 ± 49
463.15 K, Crystal | 349.91 ± 49
464.15 K, Crystal | 350.64 ± 49
465 K, Crystal | 351.2 ± 49
465.15 K, Crystal | 351.55 ± 49
466.15 K, Crystal | 352.42 ± 50
467.15 K, Crystal | 353.08 ± 50
468.15 K, Crystal | 353.97 ± 50
469.15 K, Crystal | 354.86 ± 50
470 K, Crystal | 355.62 ± 50
470.15 K, Crystal | 355.7 ± 50
471.15 K, Crystal | 356.6 ± 50
472.15 K, Crystal | 357.44 ± 50
473.15 K, Crystal | 358.19 ± 50
474.15 K, Crystal | 359.01 ± 51
475 K, Crystal | 360.31 ± 51
475.15 K, Crystal | 359.91 ± 51
476.15 K, Crystal | 360.87 ± 51
477.15 K, Crystal | 361.75 ± 51
478.15 K, Crystal | 362.53 ± 51
479.15 K, Crystal | 363.44 ± 51
480 K, Crystal | 365.32 ± 51
480.15 K, Crystal | 364.51 ± 51
481.15 K, Crystal | 365.73 ± 51
482.15 K, Crystal | 366.73 ± 52
485 K, Crystal | 370.71 ± 52
513.05 K, Liquid | 508.49 ± 72
513.15 K, Liquid | 508.52 ± 72
514.15 K, Liquid | 508.4 ± 72
515 K, Liquid | 506.99 ± 71
515.15 K, Liquid | 507.66 ± 71
516.15 K, Liquid | 505.87 ± 71
517.15 K, Liquid | 506.07 ± 71
518.15 K, Liquid | 506.35 ± 71
519.15 K, Liquid | 506.73 ± 71
520 K, Liquid | 507.22 ± 71
520.15 K, Liquid | 506.91 ± 71
521.15 K, Liquid | 507.17 ± 71
522.15 K, Liquid | 507.28 ± 71
523.15 K, Liquid | 507.22 ± 71
524.15 K, Liquid | 507.46 ± 71
525 K, Liquid | 507.46 ± 71
525.15 K, Liquid | 506.85 ± 71
526.15 K, Liquid | 507.2 ± 71
527.15 K, Liquid | 506.47 ± 71
528.15 K, Liquid | 505.89 ± 71
529.15 K, Liquid | 506.19 ± 71
530 K, Liquid | 507.69 ± 71
530.15 K, Liquid | 507.15 ± 71
531.15 K, Liquid | 507.89 ± 71
532.15 K, Liquid | 508.08 ± 71
533.15 K, Liquid | 508.54 ± 72
534.15 K, Liquid | 508.66 ± 72
535 K, Liquid | 507.93 ± 71
535.15 K, Liquid | 508.27 ± 72
536.15 K, Liquid | 508.3 ± 72
537.15 K, Liquid | 508.67 ± 72
538.15 K, Liquid | 508.45 ± 72
539.15 K, Liquid | 508.21 ± 72
540 K, Liquid | 508.16 ± 72
540.15 K, Liquid | 508.39 ± 72
541.15 K, Liquid | 508.54 ± 72
542.15 K, Liquid | 508.33 ± 72
543.15 K, Liquid | 508.45 ± 72
